The text below walks through data of EP0768085A1, “ANTIBACTERIAL AGENT” (DAIICHI PHARMACEUTICAL CO., LTD., priority 1994, dated 1996).

Values after ≈ are worked out from the molar mass of the structure shown.

Common to all, as to assay type: cell-based
Assay [1] relates to Staphylococcus aureus 209-P. Nature of the assay: Antibacterial activity (IC), Mueller-Hinton broth, 96-well microplate (Example 4, Table 39). The note with it: 37°C, 18 hours. As for the experimental part: (§1) A suitable amount of a sample was dissolved in dimethylsulfoxide (DMSO), and the resultant solution was diluted with the same amount of sterilized distilled water to prepare a bulk sample of 1,000 µg/ml. Mueller-Hinton broth (product of DIFCO) was dispensed into each well of 96-well microplate. Thereafter, the bulk specimen was added to the first well of a row, and successively diluted (10-fold each time) with sterilized distilled water. Separately, a bacterial cell suspension for the test (Staphylococcus aureus 209-P) which had been cultured in the above-mentioned broth overnight at 37°C was inoculated to each well so that the final inoculation amount of 10^6 CFU/ml was attained. The final concentrations of the samples were 100, 10, and 1 µg/ml.
(§2) The antibacterial action was evaluated by the inhibitory concentration (hereinafter abbreviated as IC) at which propagation of the bacteria cultured at 37°C for 18 hours was inhibited. Inhibition was determined by the turbidity of the medium. The expressions "IC≤100", "≤10", and "≤1" indicate that MIC-equivalent values obtained at the succesive […] dilution of the sample are 100-10 µg/ml, 10-1 µg/ml, and not more than 1 µg/ml, respectively. […] (In the subsequent Examples, the same rule applies correspondingly.) Table 39

Assay [2] has as its system Staphylococcus aureus TI-1. Nature of the assay: Antibacterial activity (IC), broth microplate as in Example 4 (Example 5, Table 40). The note with it: TI1, 18 h. As to the method:
as §1, §2
In a manner similar to that described in Example 4, antibacterial activity of the invention compound was determined. The bacterium used for the test was Staphylococcus aureus TI-1.

Assay [3] concerns Pasteurella multocida (Kobe-6). Nature of the assay: Antibacterial activity (IC), broth microplate as in Example 4 (Example 6, Table 41). The note with it: 18 h, origin pig. As to the method: as §1, §2
In a manner similar to that described in Example 4, antibacterial activity of the invention compound was determined. The bacterium used for the test was Pasteurella Kobe-6 (origin: pig; Pasteurella multocida).

Assay [4] concerns Bordetella bronchiseptica (SM2-4). Nature of the assay: Antibacterial activity (IC), broth microplate as in Example 4 (Example 7, Table 42). The note with it: 18 h. As to the method:
as §1, §2
In a manner similar to that described in Example 4, antibacterial activity of the invention compound was determined. The bacterium used for the test was Bordetella bronchiseptica (SM2-4).

As usually defined, the MIC is the smallest concentration in the dilution series that meets the test's criterion for growth inhibition. A lower MIC goes with inhibition by little substance.

As for `CC(Oc1ccc(Oc2ccc(C(F)(F)F)cn2)cc1)C(=O)C(C#N)c1ccc(Cl)cc1Cl` (centres unmarked) [Compound No. 1], the MIC in assay [1] fell in the range of 1 to 10 µg/mL (≈ 2.02 to 20.2 µM); in assay [2] it was 1 to 10 µg/mL (≈ 2.02 to 20.2 µM); in assay [3], 10 to 100 µg/mL (≈ 20.2 to 202 µM).

`CC(Oc1ccc(Oc2ncc(C(F)(F)F)cc2Cl)cc1)C(=O)C(C#N)c1ccc(Cl)cc1Cl` (centres unmarked) [Compound No. 2, 4-[4-(3-chloro-5-trifluoromethyl-2-pyridyloxy)phenoxy]-2-(2,4-dichlorophenyl)-3-oxopentanonitrile]: the MIC in assay [1] is 10 to 100 µg/mL (≈ 18.9 to 189 µM); in assay [2] it was 1 to 10 µg/mL (≈ 1.89 to 18.9 µM); in assay [3] it was 10 to 100 µg/mL (≈ 18.9 to 189 µM); in assay [4], 10 to 100 µg/mL (≈ 18.9 to 189 µM).

On to `CC(Oc1ccc(Oc2ncc(C(F)(F)F)cc2Cl)cc1)C(=O)C(C#N)c1cccc(Cl)c1` (centres unmarked) [Compound No. 10], for which the minimum inhibitory concentration (MIC) fell in the range of 1 to 10 µg/mL (≈ 2.02 to 20.2 µM) in assay [1], 1 to 10 µg/mL (≈ 2.02 to 20.2 µM) in assay [2] and 10 to 100 µg/mL (≈ 20.2 to 202 µM) in assay [3].

`CCC(Oc1ccc(Oc2ncc(C(F)(F)F)cc2Cl)cc1)C(=O)C(C#N)c1ccc(Cl)cc1Cl` (centres unmarked) [Compound No. 15]: the MIC in assay [1] lay within 1 to 10 µg/mL (≈ 1.84 to 18.4 µM); in assay [2] it was 1 to 10 µg/mL (≈ 1.84 to 18.4 µM); in assay [3] it was 10 to 100 µg/mL (≈ 18.4 to 184 µM).

For the compound `N#CC(C(=O)COc1ccc(Oc2ncc(C(F)(F)F)cc2Cl)cc1)c1ccc(Cl)cc1Cl` (centres unmarked) [compound 9], in assay [4], the minimum inhibitory concentration (MIC) was 10 to 100 µg/mL (≈ 19.4 to 194 µM).

For the compound `CC(Oc1ccc(Oc2ncc(C(F)(F)F)cc2Cl)cc1)C(=O)C(C#N)c1cccc2ccccc12` (centres unmarked) [compound 14], the MIC in assay [1], in assay [2] and in assay [4] was 10 to 100 µg/mL (≈ 19.6 to 196 µM) in each case.
